target: Sodium channel protein type 9 subunit alpha (Homo sapiens, UniProt Q15858); experiment: Inhibition of human Nav1.7 expressed in HEK293 cells by automated electrophysiological patch clamp assay; assay type: cell-based
Sequence (Q15858 whole entry): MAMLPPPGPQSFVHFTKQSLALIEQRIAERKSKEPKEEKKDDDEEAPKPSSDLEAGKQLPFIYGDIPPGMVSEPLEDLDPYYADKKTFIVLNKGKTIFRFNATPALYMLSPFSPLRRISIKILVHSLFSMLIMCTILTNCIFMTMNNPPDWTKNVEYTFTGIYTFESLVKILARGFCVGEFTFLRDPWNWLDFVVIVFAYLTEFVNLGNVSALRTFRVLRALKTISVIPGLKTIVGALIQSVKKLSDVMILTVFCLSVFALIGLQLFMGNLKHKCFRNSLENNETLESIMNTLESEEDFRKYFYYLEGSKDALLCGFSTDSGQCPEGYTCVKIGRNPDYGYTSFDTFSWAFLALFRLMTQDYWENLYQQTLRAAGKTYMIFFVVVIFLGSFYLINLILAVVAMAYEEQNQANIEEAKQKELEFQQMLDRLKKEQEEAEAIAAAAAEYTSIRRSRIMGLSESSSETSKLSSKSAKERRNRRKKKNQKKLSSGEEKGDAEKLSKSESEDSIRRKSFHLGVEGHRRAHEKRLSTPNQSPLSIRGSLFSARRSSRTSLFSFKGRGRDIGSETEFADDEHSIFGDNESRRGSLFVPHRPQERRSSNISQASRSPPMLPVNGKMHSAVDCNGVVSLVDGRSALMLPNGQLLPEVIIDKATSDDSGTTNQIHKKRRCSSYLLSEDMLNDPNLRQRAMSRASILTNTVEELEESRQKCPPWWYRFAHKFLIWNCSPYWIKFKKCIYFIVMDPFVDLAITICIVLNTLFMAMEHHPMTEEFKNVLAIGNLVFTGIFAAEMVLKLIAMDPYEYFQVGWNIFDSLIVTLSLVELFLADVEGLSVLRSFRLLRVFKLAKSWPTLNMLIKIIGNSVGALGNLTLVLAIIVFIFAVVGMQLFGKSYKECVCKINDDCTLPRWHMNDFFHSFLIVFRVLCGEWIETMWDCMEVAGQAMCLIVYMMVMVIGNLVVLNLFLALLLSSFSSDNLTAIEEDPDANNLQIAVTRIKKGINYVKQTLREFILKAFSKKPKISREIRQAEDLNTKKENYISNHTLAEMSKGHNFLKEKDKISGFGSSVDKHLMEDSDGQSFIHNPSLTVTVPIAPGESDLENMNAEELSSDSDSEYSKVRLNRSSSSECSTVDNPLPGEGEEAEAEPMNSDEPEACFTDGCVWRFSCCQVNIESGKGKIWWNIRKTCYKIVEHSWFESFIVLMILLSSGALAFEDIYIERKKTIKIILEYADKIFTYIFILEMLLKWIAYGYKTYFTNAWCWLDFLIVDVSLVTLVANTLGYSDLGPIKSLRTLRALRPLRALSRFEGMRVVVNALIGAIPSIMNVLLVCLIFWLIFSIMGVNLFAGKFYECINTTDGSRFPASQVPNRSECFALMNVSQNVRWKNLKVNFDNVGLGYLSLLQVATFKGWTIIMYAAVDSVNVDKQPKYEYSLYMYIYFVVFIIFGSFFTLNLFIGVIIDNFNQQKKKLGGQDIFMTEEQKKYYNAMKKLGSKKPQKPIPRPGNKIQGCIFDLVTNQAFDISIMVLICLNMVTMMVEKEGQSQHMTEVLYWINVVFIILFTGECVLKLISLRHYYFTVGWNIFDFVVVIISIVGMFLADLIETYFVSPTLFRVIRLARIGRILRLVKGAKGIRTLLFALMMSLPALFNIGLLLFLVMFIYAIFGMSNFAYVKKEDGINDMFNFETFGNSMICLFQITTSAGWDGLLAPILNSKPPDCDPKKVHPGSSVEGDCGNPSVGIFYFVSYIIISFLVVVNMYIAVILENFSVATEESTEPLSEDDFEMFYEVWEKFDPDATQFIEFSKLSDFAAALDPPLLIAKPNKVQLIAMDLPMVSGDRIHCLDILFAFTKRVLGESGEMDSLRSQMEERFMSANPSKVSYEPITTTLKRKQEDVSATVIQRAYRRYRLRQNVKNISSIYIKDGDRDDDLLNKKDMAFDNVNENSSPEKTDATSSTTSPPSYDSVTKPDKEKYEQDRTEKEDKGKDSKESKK

IC50 | SMILES
570 nM | NC(=O)[C@@H]1CC[C@H](c2ccc(Oc3nnnn3-c3cc(F)ccc3OC(F)(F)F)cc2)N1
1100 nM | NC(=O)[C@@H]1CC[C@H](c2ccc(Oc3nnnn3-c3ccccc3OC(F)(F)F)cc2)N1
680 nM | NC(=O)[C@@H]1CC[C@H](c2ccc(Oc3nnnn3-c3cc(Cl)ccc3OC(F)(F)F)cc2)N1
1200 nM | Cc1cc(C(F)(F)F)ccc1-n1nnnc1Oc1ccc([C@H]2CC[C@@H](C(N)=O)N2)cc1

More lines, now with the values behind:

SMILES | IC50
Cc1ccc(Cl)cc1-n1nnnc1Oc1ccc([C@H]2CC[C@@H](C(N)=O)N2)cc1 | 720 nM
Cc1cccc(C)c1-n1nnnc1Oc1ccc([C@H]2CC[C@@H](C(N)=O)N2)cc1 | 890 nM
CN1[C@@H](c2ccc(Oc3nnnn3-c3ccccc3C(F)(F)F)cc2)CC[C@H]1C(N)=O | 1800 nM
CN(C)C(=O)[C@@H]1CC[C@H](c2ccc(Oc3nnnn3-c3ccccc3OC(F)(F)F)cc2)N1 | 1800 nM
COc1ccc(C)c(-n2nnnc2Oc2ccc([C@H]3CC[C@@H](C(N)=O)N3)cc2)c1 | 1100 nM
CC(C)(C)c1ccccc1-n1nnnc1Oc1ccc([C@H]2CC[C@@H](C(N)=O)N2)cc1 | 1500 nM

— ChEMBL document CHEMBL4396975, “Sodium Channel Modulators and Their Method of Use” (ACS Med Chem Lett, 2019)
